Columns and labels:
Test in all cases: cells
[1] = tested on: doxorubicin-resistant subline (LoVo/DX); type: cell-based, human; conditions: 72 h, SRB, mean ± SD
Excerpt: (§1) The BALB/3T3 cell line was purchased from the American Type Culture Collection (ATCC, Manassas, VA, USA), A549 and MCF-7 cell lines—from European Collection of Authenticated Cell Cultures (Salisbury, UK), LoVo cell line was purchased from the ATCC (ATCC, Manassas, VA, USA), and LoVo/DX by courtesy of Prof. E. Borowski (Technical University of Gdańsk, Gdańsk, Poland). All the cell lines are maintained in the Institute of Immunology and Experimental Therapy (IIET), Wroclaw, Poland. […] Human breast adenocarcinoma cell line was cultured in mixture of Eagle medium (IIET, Wroclaw, Poland), supplemented with 10% fetal bovine serum, 2 mM L-glutamine, 8 μg/mL insulin and 1% amino-acids (Sigma-Aldrich, Merck KGaA, Saint Louis, MO, USA). […] Murine embryonic fibroblast cells were cultured in Dulbecco medium (Life Technologies Limited, Paisley, UK), supplemented with 10% fetal bovine serum (GE Healthcare, Logan, UT, USA) and 2 mM glutamine (Sigma-Aldrich, Merck KGaA, Saint Louis, MO, USA). All culture media contained antibiotics: 100 U/mL penicillin and 100 μg/mL streptomycin (Polfa-Tarchomin, Warsaw, Poland). All cell lines were cultured during entire experiment in humid atmosphere at 37 °C and 5% CO2. […] The procedure is repeated every year or in the case of less frequently used lines: after thawing.
(§2) Twenty-four hours before adding the tested compounds, all cell lines were seeded in 96-well plates (Sarstedt, Nümbrecht, Germany) in appropriate media with 10^4 cells per well. All cell lines were exposed to each tested agent at four different concentrations in the range 100–0.01 μg/mL for 72 h. […] Additionally, all cell lines were exposed to DMSO (solvent used for tested compounds) (POCh, Gliwice, Poland) at concentrations corresponding to those present in tested agents’ dilutions. After 72 h sulforhodamine B assay (SRB) was performed.
(§3) After 72 h of incubation with the tested compounds, cells were fixed in situ by gently adding of 50 μL per well of cold 50% trichloroacetic acid TCA (POCh, Gliwice, Poland) and were incubated at 4 °C for one hour. Following, wells were washed four times with water and air dried. Next, 50 μL of 0.1% solution of sulforhodamine B (Sigma-Aldrich, Merck KGaA, Saint Louis, MO, USA) in 1% acetic acid (POCh, Gliwice, Poland) were added to each well and plates were incubated at room temperature for 0.5 h. After incubation time, unbound dye was removed by washing plates four times with 1% acetic acid whereas stain bound to cells was solubilized with 10 mM Tris base (Sigma-Aldrich, Steinheim, Germany). Absorbance of each solution was read at Synergy H4 Hybrid Multi-Mode Microplate Reader (BioTek Instruments, Inc., Winooski, VT, USA) at the 540 nm wavelength.
(§4) Compounds at each concentration were tested in triplicates in single experiment and each experiment was repeated at least three times independently. The Resistance Index (RI) was defined as the ratio of IC50 for a given compound calculated for resistant cell line to that measured for its parental drug sensitive cell line (Table 1).

[2] = tested on: normal murine embryonic fibroblast cell line (BALB/3T3); type: cell-based; conditions: normal murine fibroblasts BALB/3T3, 72 h, SRB, mean ± SD
Excerpt: as §1, §2, §3, §4

[3] = tested on: human lung adenocarcinoma (A549); type: cell-based; conditions: A549, 72 h, SRB, mean ± SD
Excerpt: as §1, §2, §3, §4

[4] = tested on: human breast adenocarcinoma (MCF-7); type: cell-based; conditions: MCF-7, 72 h, SRB, mean ± SD
Excerpt: as §1, §2, §3, §4

[5] = tested on: human colon adenocarcinoma cell line (LoVo); type: cell-based; conditions: 72 h, SRB, mean ± SD
Excerpt: as §1, §2, §3, §4

Row | Compound | IC50 ([1]; Homo sapiens) [nM] | IC50 ([2]; Mus musculus) [nM] | IC50 ([3]; Homo sapiens) [nM] | IC50 ([4]; Homo sapiens, MCF7) [nM] | IC50 ([5]; Homo sapiens) [nM] | IC50 [1] [nM] | IC50 [2] [nM] | IC50 [3] [nM] | IC50 [4] [nM] | IC50 [5] [nM]
1 | COc1c(Cl)c2c(c(OC)c1OC)-c1ccc(SC)c(=O)cc1[C@@H](NC(C)=O)CC2 [Compound 4] | 111 ± 44 | 22 ± 2 | 22 ± 2 | 22 ± 2 | 22 ± 2 |  |  |  |  | 
2 | COc1c(Br)c2c(c(OC)c1OC)-c1ccc(SC)c(=O)cc1[C@@H](NC(C)=O)CC2 [Compound 6, 4-bromothiocolchine] | 135 ± 12 | 103 ± 89 | 10 ± 0.1 | 15 ± 2 | 14 ± 4 |  |  |  |  | 
3 | COc1c(Br)c2c(c(OC)c1OC)-c1ccc(OC)c(=O)cc1[C@@H](NC(C)=O)CC2 [Compound 5, 4-bromocolchicine] | 1550 ± 170 | 142 ± 73 | 105 ± 8 | 27 ± 8 | 84 ± 21 |  |  |  |  | 
4 | N.N.[Cl][Pt][Cl] [Cisplatin, reference compound] |  |  |  |  |  | 5700 ± 630 | 3900 ± 1500 | 6370 ± 1410 | 10700 ± 753 | 4370 ± 730
5 | COc1c(I)c2c(c(OC)c1OC)-c1ccc(OC)c(=O)cc1[C@@H](NC(C)=O)CC2 [Compound 7, 4-iodocolchicine] | 2780 ± 450 | 135 ± 56 | 94 ± 6 | 98 ± 29 | 10 ± 2 |  |  |  |  | 
6 | COc1cccc2c1C(=O)c1c(O)c3c(c(O)c1C2=O)C[C@@](O)(C(=O)CO)C[C@@H]3O[C@H]1C[C@H](N)[C@H](O)[C@H](C)O1 [Doxorubicin, reference compound] | 4750 ± 990 | 166 ± 74 | 258 ± 44 |  |  |  |  |  |  | 
7 | COc1c(Cl)c2c(c(OC)c1OC)-c1ccc(OC)c(=O)cc1[C@@H](NC(C)=O)CC2 [Compound 3, 4-chlorocolchicine] | 784 ± 280 | 138 ± 69 | 46 ± 35 | 23 ± 5 | 69 ± 12 |  |  |  |  | 
8 | COc1c(I)c2c(c(OC)c1OC)-c1ccc(SC)c(=O)cc1[C@@H](NC(C)=O)CC2 [Compound 8, 4-iodothiocolchicine] | 642 ± 84 | 115 ± 44 | 11 ± 2 | 17 ± 6 | 7 ± 2 |  |  |  |  | 
